In one series the test system is enteroendocrinal L cells. Nature of the series: Gene expression analysis (QPCR) in enteroendocrinal L cells. It counts as cell-based, human.
Series [1] concerns human enteroendocrinal L cells (NCI-H716). The series is described as follows: In vitro GLP-1 secretion assay. Format: cell-based. Conditions: L cells pretreated with compound. As to the method: In vitro GLP-1 secretion assay was performed in human enteroendocrinal L cells (NCI-H716). For each secretion assay, cells were seeded at 1×10^5 cells/ml (1 ml/well) in a matrigel-coated 24-well plate. Prior to GLP-1 secretion assay, cells were pre-treated with DMSO, 1 μM Fex, or 1 μM Fex-D overnight. Cells were deprived in Krebs buffer (with 0.1% BSA) with dipeptidyl peptidase (DPP)-4 inhibitor ([…] sitagliptin). GLP-1 was measured with a commercial kit (EZGLP1T-36K, Millipore). For in vivo GLP-1 secretion, each animal was gavaged with 25 mg per kg of body weight sitagliptin 60-minutes before glucose load. Blood was collected from the tail vein at the indicated intervals, and transferred to serum collection tubes containing sitagliptin.

A further series deals with ob/ob mice. Nature of the series: gene expression (RNA-Seq, QPCR) in tissues of treated ob/ob mice. Format: in vivo, mouse. Conditions: INT-777 60 mg/kg P.O. for 5 weeks. As to the method: Total RNA was isolated from cell pellets treated with RNAlater using the RNA mini kit (Qiagen) and treated with DNaseI (Qiagen) for 30 minutes at room temperature. Sequencing libraries were prepared from 100-500 ng total RNA using the TruSeq RNA Sample Preparation Kit v2 (Illumina) according to the manufacturer's protocol. Briefly, mRNA was purified, fragmented, and used for first-, then second-strand cDNA synthesis followed by adenylation of 3′ ends. Samples were ligated to unique adapters and subjected to PCR amplification. Mulitplexed libraries were then validated using the 2100 BioAnalyzer (Agilent), normalized, and pooled for sequencing. RNA-Seq libraries prepared from two biological replicates for each experimental condition were sequenced on the Illumina HiSeq 2500 using bar-coded multiplexing and a 100 bp read length.
Image analysis and base calling were performed with Illumina CASAVA-1.8.2. This yielded a median of 29.9M usable reads per sample. Short read sequences were mapped to a UCSC mm9 reference sequence using the RNA-seq aligner STAR. Known splice junctions from mm9 were supplied to the aligner and de novo junction discovery was also permitted. Differential gene expression analysis, statistical testing and annotation were performed using Cuffdiff 2. Transcript expression was calculated as gene-level relative abundance in fragments per kilobase of exon model per million mapped fragments and employed correction for transcript abundance bias. RNA-Seq results for genes of interest were also explored visually using the UCSC Genome Browser.

The nature of series [2]: in vitro permeability in Caco2 cells. As to conditions: human; for Papp A→B at 2 h, 10 μM: Caco2 cells, assay conc. 10 μM. (In general: Caco-2 cells form a polarised layer with tight junctions and transporters.)
Another series is described as follows: in vitro. Conditions: human.
The subject of a further series is isolated islets. Nature of the series: gene expression after direct ex vivo treatment of isolated islets. Format: cell-based, mouse. As to conditions: 24 hours ex vivo, XL335 1 μM, Fex 1 μM. As to the method:
Leptin-deficient ob/ob mice were treated daily with vehicle, Fex, or the analogue Fex-D (50 mg/kg) via P.O. for 14 days (A) Chemical structures of fexaramine and Fex-D (B) Schematic of the experimental design (C) Serum glucose levels (D) Glucose tolerance test (E) Insulin secretion in vivo (F) GLP-1 secretion in vivo (G) Heatmap showing hierarchal clustering of gene expression changes in islet induced by Fex (100 mg/kg, 4 wks) and FexD (50 mg/kg, 2 weeks) treatment in ob/ob mice (in vivo); by treatment of islets with XL335 (1 μM), Fex (1 μM), mFgf15 and hFgf19 (24 hours ex vivo); and mFgf15 (0.15 mg/kg, 2 weeks) and INT777 (Tgr5, 60 mg/kg, 4 weeks) treatment of ob/ob mice (in vivo). Gene expression was measured by RNA-Seq and changes are expressed as Z-score. (H) Ven diagram of changes in gene expression in pancreatic islets induced by FEX (100 mg/kg for 5 weeks) and FEX-D (50 mg/kg for 14 days). […] Data represent the mean±STD. Statistical analysis was performed with the Student's t test. *p<0.05, **p<0.01.
Next, primary islets were isolated from mice treated by Fex-D to compare gene expression changes.

The next series concerns NCI-H716 cells. Nature of the series: Extracellular oxygen consumption rate assay (Seahorse XF96). It counts as cell-based, human. As to the method:
Briefly, NCI-H716 cells were seeded in XF 96-well cell culture microplates (Seahorse Bioscience) at 6.0×10^4 cells per well in 150 μl of growth medium and then incubated at 37° C./5% CO2 for 24 hr. A Seahorse Bioscience instrument model XF96 was used to measure the rate of change of dissolved oxygen in the media surrounding the cells. All procedures followed manufacturer's instructions. […] Conversely, treatment with the FXR antagonist guggulsterone reduced basal respiratory rates and the FCCP-induced maximum respiration rate (FIGS. 9A and 9B). To examine the effects of FXR activity on the secretion of GLP-1, the metabolic changes induced in human L cells was measured after treatment with the FXR agonist, fexaramine and an FXR antagonist, guggulsterone. Treatment of L cells with fexaramine (1 μM for 24 hours) lead to an increase in the oxygen consumption rate (OCR), consistent with increased mitochondrial activity and consequently, an increased energetic state (FIG. 9A). The reverse effect was seen after treatment with the FXR antagonist, guggulsterone, with lower OCR after drug treatment.

Series [3] has as its system pancreatic islets from ob/ob mice. The series is described as follows: Insulin secretion assay on isolated pancreatic islets (ex vivo). It counts as cell-based, mouse. Conditions: islets, 100 nM Exendin-4. As to the method: Mouse pancreatic islets were isolated from ob/ob mice according to a method used for rats traditionally. Briefly, 0.5 mg/ml collagenase P (Roche) diluted in HBSS buffer was injected through the common bile duct and the perfused pancreas was dissected and incubated in water bath with 37° C. for 21 minutes. Digested exocrine cells and intact islets were separated using Histopaque-1077 (SIGMA) with centrifugation by 900 g for 15 minutes and intact islets were picked up manually.
Insulin release from intact islets was monitored using batch incubation methods.
Isolated pancreatic islets were cultured over-night with […] supplemented with 10% (v/v) fetal bovine serum and 1% (v/v) Antibiotics-antimycotic solution, were pre-cultured at 37° C. for 30 minutes in Krebs Ringer bicarbonate buffer (KRBH) containing 129.4 mM NaCl, 3.7 mM KCl, 2.7 mM CaCl2, 1.3 mM KH2PO4, 1.3 mM MgSO4, 24.8 mM NaHCO3 (equilibrated with 5% CO2, 95% O2, pH7.4), 10 mM HEPES and 0.2% (v/v) BSA (fraction V) with 3 mM glucose. N ext, the pancreatic islets were incubated for 30 minutes KRBH buffer (500 μl/10 islets) with 3 mM or 20 mM glucose with or without 100 nM Exendin-4 to determine insulin secretion levels. At the end of the incubation period, islets were pelleted by centrifugation, and aliquots of the buffer were sampled. The amounts of insulin were determined by Rat/mouse Insulin ELISA KIT (Millipore) for mice islets.

The mark [4] stands for this setting: Caco-2, A-B Permeability Ranking.
The mark [5] stands for this setting: Caco-2, Mean Papp, A-B, 2 hour incubation.

With `CC[C@H]1[C@@H](O)[C@@H]2[C@H](C[C@H](O)[C@]3(C)[C@@H]([C@H](C)C[C@H](C)C(=O)O)CC[C@@H]23)[C@@]2(C)CC[C@@H](O)C[C@@H]12` [INT-777], in the series on enteroendocrinal L cells, the “SHP expression (FXR target gene)” value is “not” and the proglucagon expression entry is “selectively induced”. The “GLP-1 secretion in response to a glucose challenge” value in series [1] is on record as “increased”. In addition, the “expression of the GLP-1 receptor in islets” value with ob/ob mice is on record as “significantly increased”.

As to `[2H]C(c1ccc(-c2ccc(N(C)C)cc2)cc1)N(C(=O)[C@@H]1C[C@@H]2CC[C@H]1C2)c1cc(F)cc(/C=C/C(=O)OC)c1` (stereo partly shown) [NSSK 00024], in series [2] (Caco-2), the Papp B→A at 2 h, 10 μM turned out to be 0.23 ×10⁻⁶ cm/s and the recovery at 2 h, 10 μM was found to be 192%. Also, the Papp A→B at 2 h, 10 μM in series [2] (setting [4]) was < 1 ×10⁻⁶ cm/s. The Papp A→B at 2 h, 10 μM in series [2] (setting [5]) came to 0.0294 ×10⁻⁶ cm/s.

Regarding `[2H]C(c1ccc(-c2ccc3c(cnn3C)c2)cc1F)N(C(=O)C1CCCCC1)c1cccc(/C=C/C(=O)OC)c1` (stereo not shown) [NSSK 00089], in series [2] (Caco-2), the apparent permeability from basolateral to apical (Papp B→A) at 2 h, 10 μM was determined as 0.064 ×10⁻⁶ cm/s and the recovery at 2 h, 10 μM is 67.1%. Moreover, in series [2] (setting [4]), the apical-to-basolateral permeability (Papp A→B) at 2 h, 10 μM was < 1 ×10⁻⁶ cm/s. The molecule also registered a Papp A→B at 2 h, 10 μM in series [2] (setting [5]) of 0.0962 ×10⁻⁶ cm/s.

Regarding `[2H]C(c1ccc(-c2ccc3c(cnn3C)c2)cc1)N(C(=O)C1CCCCC1)c1cc(F)cc(/C=C/C(=O)OC)c1` (stereo not shown) [NSSK 00096], in series [2] (Caco-2), the Papp B→A at 2 h, 10 μM was 0.0399 ×10⁻⁶ cm/s. This molecule came in with a recovery at 2 h, 10 μM in series [2] (Caco-2) of 69.9%. Further, the figures for the Papp A→B at 2 h, 10 μM in series [2] (setting [4]) and in series [2] (setting [5]) were < 1 ×10⁻⁶ cm/s and 0.0104 ×10⁻⁶ cm/s, respectively.

Regarding `CNC(=C[N+](=O)[O-])NCCSCc1ccc(CN(C)C)o1` [Ranitidine], in series [2] (Caco-2), the Papp B→A at 2 h, 10 μM turned out to be 0.922 ×10⁻⁶ cm/s; the efflux ratio at 2 h, 10 μM amounted to 3.36; the recovery at 2 h, 10 μM was 92.7%. In series [2] (setting [4]), the Papp A→B at 2 h, 10 μM was < 1 ×10⁻⁶ cm/s. This molecule also showed a Papp A→B at 2 h, 10 μM in series [2] (setting [5]) of 0.274 ×10⁻⁶ cm/s.

For the molecule `CC(=O)CC(c1ccccc1)c1c(O)c2ccccc2oc1=O` (stereo not shown) [Warfarin], in the series “in vitro” (Caco-2), the Papp B→A at 2 h, 10 μM turned out to be 29.8 ×10⁻⁶ cm/s; the efflux ratio at 2 h, 10 μM was 0.695; the recovery at 2 h, 10 μM worked out at 101%. Also, the apparent permeability from apical to basolateral (Papp A→B) at 2 h, 10 μM in the series “in vitro” (setting [4]) was > 1 ×10⁻⁶ cm/s. Also, the Papp A→B at 2 h, 10 μM in “in vitro” (Caco-2, Mean Papp, A-B) is 42.8 ×10⁻⁶ cm/s.

Take `CC(C)OC(=O)C1=CN(C(=O)c2ccc(F)c(F)c2)CC(C)(C)c2c1[nH]c1ccccc21` [XL335]: in the series with isolated islets, the “transcriptional changes seen in islets in vivo with Fex and Fex-D” value is recorded as “not observed”.

Take `C/C=C1\C(=O)C[C@H]2[C@@H]3CCC4=CC(=O)CC[C@]4(C)[C@H]3CC[C@]12C` [guggulsterone]: the “basal respiratory rates and the FCCP-induced maximum respiration rate” value in the series on NCI-H716 cells (L cells, guggulsterone 10 μM for 24 hr) is given as “reduced”. Moreover, the “oxygen consumption rate (OCR)” value with NCI-H716 cells (human L cells, 24 hours, fexaramine 1 μM, guggulsterone 10 μM) is “lower”.

In the case of Exendin-4: GLP-1 agonist, the “ex vivo insulin secretion in presence of GLP-1 agonist” value in series [3] is recorded as “further potentiated”.

Regarding “hFgf19: hFgf19 protein used for direct ex vivo treatment of isolated islets”, the “transcriptional changes seen in islets in vivo with Fex and Fex-D” value with isolated islets is “not observed”.

Usually Papp B→A stands for the apparent permeability from the basolateral to the apical side of a cell layer. Broadly, the Papp A→B is how fast a substance crosses the layer from the apical side. Read a low Papp A→B as slow passage. By efflux ratio is commonly meant the permeability from basolateral to apical divided by that in the opposite direction, in the common usage.
